Converted amounts (≈) assume the structure as drawn. Like-named read-outs stand apart in the source and are kept apart here.
Legend:
[1] = tested on: HSV-1TK+ (Strain McCrae of type 1 herpes); assay: Inhibition of viral CPE, HSV-1TK+ in MA-104 cells; format: cell-based
Method: (§1) One herpes virus strain employed was Strain McCrae of type 1 herpes (thymidine kinase positive virus) (HSV-1TK^+). This strain was prepared and titered in MA-104 cells and frozen at -90° C. until use. Also used were strain HF (HSV-1TK^-). Strain E194 (HSV-2), NJB strain (MCMV), strain AD169 (HCMV).
(§2) Continuous passaged monkey kidney (MA-104) cells were used for testing of herpes-type virus, with growth medium consisting of Minimum Essential Medium (MEM) supplemented with 0.1% NaHCO3 and […] gentamicin.
(§3) To a 96 well microtiter plate containing an established 24 hour monolayer of cells from which the medium has been decanted was added 0.1 ml of varying (one-half log10) concentrations of test compound, which incubated on the cell 15 minutes, after which 0.1 ml of virus in a concentration of 320 cell culture 50% infectious doses (CCID50)/0.1 ml was added. The plate was covered with plastic wrap and incubated at 37° C. Included with the test were toxicity controls (each concentration of compound+test medium in place of virus), virus controls (virus+test medium in place of compound) and cell controls (test medium in place of compound and virus). The cells were examined microscopically after 72 hours for evidence of cytotoxicity and for viral cytopathic effect (CPE). Vidarabine was run on the same plate in parallel. […] were added to the medium at a concentration of 2000 μg/ml for use as a positive control.
Antiviral activity was determined by observation of inhibition of viral CPE. This activity was expressed by ED50, defined as that dose range of compound causing 50% CPE inhibition.
A Virus Rating (VR) was also determined. VR is a numerical expression of antiviral activity, weighted to take into account any cytotoxicity observed, as discussed by Sidewell et al, Appl Microbiol (1971) 22:797. Generally, a VR of 0.1-0.4 indicates slight antiviral effect, 0.5-0.9 indicates moderate antiviral effect, and ≥1.0 indicates strong antiviral effect.

[2] = tested on: human cytomegalovirus (strain AD169); assay: Plaque reduction, human cytomegalovirus; format: cell-based
Method: as §1
^a 50% effective dose, determined from plot of data.
(§4) The data on acyclovir were gathered from tests run in MRC-5 cells grown under agarose overlay, with plaques read 7 days after virus exposure.

[3] = tested on: HSV-1TK+; assay: In vivo guinea pig HSV-1TK+ lesion test, topical solution; settings: guinea pigs; for TK+ (average number of lesions): five days after treatment
Method: Compound 2 also was tested in vivo in guinea pigs as an agent against HSV-1TK^+. The animals were inoculated with the virus; 18 hours later Compound 2 at two concentrations (0.4% and 1-2% (saturated) solution in water) was administered, and five days later blister diameters at the point of inoculation were measured. A 5% solution of acyclovir or a 1.4% solution of poly(vinylalcohol) was used as control. Satellite lesions were measured, as well.

[4] = tested on: HIV; assay: Antiviral activity versus HIV in lymphoblastoid cells; format: cell-based; settings: Human immunodeficiency virus 1, Lymphoblastoid cell, read-out: ED50 against HIV
Method: The compounds of the invention were evaluated in vitro as antiviral agents against herpes virus and against RNA retrovirus. Various herpes strains were used. An infected B lymphoblastoid cell line was used as HIV substrate to test antiviral activity with respect to RNA retrovirus.
To test antiviral activity versus HIV, the following procedure was used: Infectious HIV was assayed in cell culture as described originally by Barre-Sinoussi et al for isolation of LAV, except that persistently infected lymphoblastoid cells were used instead of mononuclear cells from anti-LAV negative donors. HIV obtained from cell culture was stored in liquid nitrogen in aliquots of RPMI 1640 culture medium with 20% of total calf serum and 20% glycerol and containing 1,000 TCID-50 HIV. The lymphoblastoid cells (10^6) were incubated with 1,000 TCID-50 of HIV obtained from cell cultures, and cells were then cultured in RPMI-1640 medium. Culture medium was changed every 3 days for 3 weeks and the medium for each 3-day period from Day 6 through Day 21 was assayed for viral reverse transcriptase activity by concentrating (pelleting) virus by ultracentrifugation in the 100 place Spinco 25 rotor and assaying pellets for reverse transcriptase (RT) using a ^32 P-dTTP in the presence of dimer-template poly rA-oligo dT. […]

[5] = tested on: MA-104 cells; assay: Cytotoxicity controls (maximum tolerated dose) in MA-104 cells; format: cell-based, monkey; settings: Table 3 Test 2
Method: as §2, §3
*Maximum tolerated dose, μg/ml.

[6] = Cytotoxicity (maximum tolerated dose), control tests in 96-well microplates; format: cell-based; settings: Table 5; microscopic examination, separately run control tests; read-out: Approx. MTD (dose causing approximately 50% cytotoxic effects in cells)
Excerpt: (§5) ^b Maximum tolerated dose: That dose causing approximately 50%
(§6) cytotoxic effects in cells, determined by the microscopic examination of
(§7) cells for sloughing, shape alteration, and granularity in separately run
(§8) control tests in 96well microplates.
as §4

[7] = tested on: cells; assay: as above; format: cell-based; settings: overall, Table 5
Excerpt: as §5, §6, §7, §8, §4

[8] = 1-2% (saturated) solution in water

CCOP(=O)(O)CCCOCn1cnc2c(=O)[nH]c(N)nc21 [Compound 2, 9(3'-ethylphosphono-1'-propyloxymethyl)guanine]
activity against HSV-1TK+ relative to vidarabine [1]: comparable to that of vidarabine | EC50 ([1]; MA104, 72 h, read-out: ED50): < 1 µg/mL | inhibition at 1000 µg/mL ([1]; MA104, read-out: CPE Inhib., Table 3 Test 1, 1000 μg/ml): 100% | VR (Virus Rating) ([1]; Table 3 Test 1, HSV-1TK+): > 2.0 | ED50 ([1]; Table 3 Test 2, HSV-1TK+): < 1.0 µg/mL | VR (Virus Rating) ([1]; Table 3 Test 2, HSV-1TK+): > 1.4 | No. Plaques ([2]; Experiment No. 1, 32 μg/ml): 5 | No. Plaques ([2]; Experiment No. 1, 100 μg/ml): 0 | No. Plaques ([2]; Experiment No. 2, 10 μg/ml): 17 | No. Plaques ([2]; Experiment No. 2, 32 μg/ml): 6 | No. Plaques ([2]; Experiment No. 2, 100 μg/ml): 1 | inhibition at 32 µg/mL ([2]; Human betaherpesvirus 5, AD169, read-out: % Reduct., Experiment No. 1, 32 μg/ml): 71% | inhibition at 100 µg/mL ([2]; Human betaherpesvirus 5, AD169, read-out: % Reduct., Experiment No. 1, 100 μg/ml): 100% | inhibition at 10 µg/mL ([2]; Human betaherpesvirus 5, AD169, read-out: % Reduct., Experiment No. 2, 10 μg/ml): 23% | inhibition at 32 µg/mL ([2]; Human betaherpesvirus 5, AD169, read-out: % Reduct., Experiment No. 2, 32 μg/ml): 73% | inhibition at 100 µg/mL ([2]; Human betaherpesvirus 5, AD169, read-out: % Reduct., Experiment No. 2, 100 μg/ml): 96% | EC50 ([2]; Human betaherpesvirus 5, AD169, read-out: Approx. ED50, Experiment No. 2, determined from plot of data): 10 to 32 µg/mL (≈ 30.2 to 96.6 µM) | EC50 ([2]; Human betaherpesvirus 5, AD169, read-out: ED50, human CMV): 10 µg/mL (≈ 30.2 µM) | human CMV-inhibitory effect relative to acyclovir ([2]; overall, Table 5): approximately the same | Satellite lesions ([3]; 0.4% solution in water): 11 | TK+ (average number of lesions) ([3]; 0.4% solution in water): 2.1 | Satellite lesions [3, 8]: 6 | TK+ (average number of lesions) [3, 8]: 0.9 | activity against HSV TK+ virus in vivo ([3]; at least in saturated solution): has activity | EC50 [4]: 30 µg/mL (≈ 90.6 µM) | MTD (Maximum tolerated dose) [5]: > 1000 µg/mL | CC50 [6]: ~1000 µg/mL (≈ 3020 µM) | cytotoxicity relative to acyclovir [7]: approximately the same
